Data reported in publication PMC11853379, “Glioblastoma Cell Migration, Invasion and Vasculogenic Mimicry Downmodulated by Novel uPAcyclin Derivatives” (Cells, 2025).
Positions of bridges follow the written chain, without caps; N, C: chain ends. Residues, ends and D or L forms follow the SMILES beside them.

Experiments:
[1] = test system: GBM; conditions: surgical resection, radiotherapy and concomitant Temozolomide; extended from 12.1 months; cited from earlier work
Text: Glioblastoma (GBM) is the most common malignant primary brain tumor, characterized by micro-vascular proliferation, cellular necrosis and the pronounced invasiveness of surrounding parenchima with high recurrency and a high mortality rate. […] In particular, surgery still represents an important pillar of treat ...

[2] = test system: U87-MG cells; format: cell-based, human; conditions: for inhibitory activity on cell migration, comparison (in words): U87-MG migration toward 5% FBS
Method: The migration and invasion assays were performed with Boyden chambers, according to De Vincenzo et al., using 11 × 10^4 U87-MG and U251-MG glioblastoma cells/sample pre-treated for 40 min at 37 °C with the indicated effectors and then allowed to migrate for 3 h or to invade for 5 h at 37 °C toward 5% FBS in DMEM/0.1% BSA. The migrated or invaded cells were reported as a percentage of basal random migration or invasion and analyzed as reported in the Statistical Analyses section. The migration and invasion experiments were conducted in triplicate.
(§1) Figure 1 Binding of Ala peptides to U87-MG cells and effect of uPAcyclin and Ala peptides on U87-MG cellular migration. (A) A total of 2 × 10^6 U87-MG cells were pre-incubated for 30 min at 4 °C with increasing concentrations of unlabeled uPAcyclin and Ala peptides and then exposed to 50 nM of FITC-uPAcyclin for 2 h at 4 °C. Cell surface-associated fluorescence, as percentage of the sample with […], is shown. Experiments were carried out in duplicate, and the data shown here are representative of three independent experiments. (B) 11 × 10^4 U87-MG cells/sample were pre-treated for 40 min at 37 °C with increasing concentrations of uPAcyclin or the indicated Ala peptides and then assayed in Boyden chambers for 5% FBS-dependent migration for 3 h at 37 °C. At the end of incubation, the filters were processed as described in the Methods section. For clarity here and in the following Figures, Ala-x indicates the peptide with substituted x-position. For both assays, the p-values are in the range of 0.005 ≤ p ≤ 0.001, apart from [Ala1]uPAcyclin in the migration assay with p ≤ 0.05.
Alterations of the amino acid sequence may affect the peptide structure and may, in turn, alter its function. To test for differences in the inhibitory activity of the Ala-substituted peptides, U87-MG glioblastoma cells were subjected to a directional migration assay in Boyden chambers towards FBS, in the presence or in the absence of the indicated concentrations of uPAcyclin or one of its Ala-scan derivatives (Figure 1B).

[3] = target: T1, integrin αV receptors on the GBM cell surface (U87-MG cells) (Homo sapiens, UniProt P06756); experiment: Receptor binding assay: displacement of FITC-uPAcyclin from U87-MG living cells; conditions: for increase of binding affinity compared to uPAcyclin / binding affinity compared to uPAcyclin (in words): U87-MG cells; for binding affinity compared to uPAcyclin (in words): displacement of FITC-uPAcyclin
T1 construct: endogenous in cells; host or cells: U87-MG human glioblastoma cells (living, acid-treated, 4 °C)
Method: The U87-MG and U251-MG cell lines were harvested and acid-treated, as described. Briefly, 2 × 10^6 cells/sample were pre-incubated for 30 min at 4 °C with uPAcyclin and Ala peptides and subsequently exposed to 50 nM FITC-uPAcyclin for 2 h at 4 °C, as described. The experiments were performed three times, with duplicate samples, and analyzed as reported in the statistical analysis.
This assay confirmed that FITC-uPAcyclin binds specifically to both GBM cell lines and to the HEK-293/αV, whereas little interaction is detected with HEK-293 cells (Supporting Information, Table S7). […] To investigate the ability of novel Ala-scan peptides to compete with uPAcyclin for binding to integrin αV receptors on the GBM cell surface, the specific interaction of FITC-conjugated uPAcyclin with U87-MG living cells was tested via a receptor binding assay. U87-MG GBM cells were pre-incubated with increasing concentrations of unlabeled Ala peptides and then exposed to FITC-uPAcyclin (Figure 1A). […] When considering the relative Kdapp of uPAcyclin variants, it can be inferred that the replacement either of each of the three prolines (Pro^2, Pro^5, Pro^6) or Lys^1 increases the binding affinity of the resulting peptide compared to uPAcyclin. In contrast, the Ala mutation of other residues is detrimental to the peptide binding affinity.
as §1

T1 sequence (P06756 31-889 limits assumed): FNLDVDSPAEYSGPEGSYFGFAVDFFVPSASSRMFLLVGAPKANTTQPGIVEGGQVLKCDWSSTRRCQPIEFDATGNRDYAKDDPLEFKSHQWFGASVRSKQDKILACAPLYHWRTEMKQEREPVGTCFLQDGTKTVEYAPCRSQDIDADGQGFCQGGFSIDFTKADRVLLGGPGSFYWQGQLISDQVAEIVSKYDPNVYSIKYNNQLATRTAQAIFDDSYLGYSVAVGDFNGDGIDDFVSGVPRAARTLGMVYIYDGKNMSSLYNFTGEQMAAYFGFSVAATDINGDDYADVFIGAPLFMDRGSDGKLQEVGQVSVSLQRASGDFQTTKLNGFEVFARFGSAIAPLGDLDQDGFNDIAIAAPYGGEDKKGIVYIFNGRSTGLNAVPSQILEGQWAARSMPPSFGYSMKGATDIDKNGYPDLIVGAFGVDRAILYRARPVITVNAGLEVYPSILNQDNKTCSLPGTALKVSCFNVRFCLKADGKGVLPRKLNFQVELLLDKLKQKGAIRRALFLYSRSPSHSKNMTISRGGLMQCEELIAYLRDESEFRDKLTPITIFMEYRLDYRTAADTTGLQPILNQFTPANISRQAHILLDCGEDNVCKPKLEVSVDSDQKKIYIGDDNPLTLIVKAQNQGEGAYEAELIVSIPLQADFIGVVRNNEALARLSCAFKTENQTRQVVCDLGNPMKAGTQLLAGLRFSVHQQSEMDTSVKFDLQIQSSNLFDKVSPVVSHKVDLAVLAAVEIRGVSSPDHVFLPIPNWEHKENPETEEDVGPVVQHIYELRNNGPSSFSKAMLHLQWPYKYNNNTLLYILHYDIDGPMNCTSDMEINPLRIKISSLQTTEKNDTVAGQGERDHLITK
T1 sequence (P06756 891-1048 limits assumed): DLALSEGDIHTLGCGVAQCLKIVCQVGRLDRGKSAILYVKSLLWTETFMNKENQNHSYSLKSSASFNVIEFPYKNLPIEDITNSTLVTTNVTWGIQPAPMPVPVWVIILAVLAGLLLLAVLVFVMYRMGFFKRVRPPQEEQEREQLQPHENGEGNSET

Row | increase of binding affinity compared to uPAcyclin [3] | improvement in binding compared to parental uPAcyclin ([3]; GBM cells) [fold] | Structure (SMILES) | median overall survival [1] [months] | IC50 of migration lower / inhibitory activity higher than parental uPAcyclin ([2]; U87-MG migration) | inhibitory activity on cell migration, comparison (in words) [2] | binding affinity compared to uPAcyclin (in words) [3]
1 |  |  | Cn1nnc2c(C(N)=O)ncn2c1=O [Temozolomide] | 14.6 |  |  | 
2 | about 1 log |  | CC(=O)N[C@@H](CCCCN)C(=O)N[C@@H](C)C(=O)N[C@H]1CCC(=O)NCCCC[C@@H](C(N)=O)NC(=O)[C@H](CC(C)C)NC(=O)[C@H](CCC(=O)O)NC(=O)[C@H](CCC(=O)O)NC(=O)[C@@H]2CCCN2C(=O)[C@@H]2CCCN2C(=O)[C@H](CO)NC1=O [[Ala^2]uPAcyclin] (Ac-KAESPPEELK-NH2; lactam 3-10) |  | about 10 fold | strong inhibitors | definitely higher than that of the parental uPAcyclin
3 | about 1 log | 10 | CC(=O)N[C@@H](CCCCN)C(=O)N1CCC[C@H]1C(=O)N[C@H]1CCC(=O)NCCCC[C@@H](C(N)=O)NC(=O)[C@H](CC(C)C)NC(=O)[C@H](CCC(=O)O)NC(=O)[C@H](CCC(=O)O)NC(=O)[C@@H]2CCCN2C(=O)[C@H](C)NC(=O)[C@H](CO)NC1=O [[Ala^5]uPAcyclin] (Ac-KPESAPEELK-NH2; lactam 3-10) |  |  | strong inhibitors | definitely higher than that of the parental uPAcyclin
